Test results from US12421499B2, “Method of differentiation of human pluripotent stem cells to monohormonal cells” (Cornell University, priority 2018, dated 2025).
pIC50: −log10 of the molar value.

Tests used:
GLIS3−/− PP2-β cells [1] = assay: Cell death rate (PI+ INS+ cells in INS+ cells), propidium iodide staining; assay type: cell-based, human; settings: for cell death rate: INS-GFP+ GLIS3−/− PP2-β cells
Protocol: Propium iodide cell viability staining. Cells at D30_L were dissociated using Accutase and replated onto 96-well plates coated with 804-G conditioned medium. Once attached, cells were stained by 2.5 μg mL^−1 propium iodide in DMEM for 12 min, washed once with DMEM and fixed with 4% paraformaldehyde for 20 min. DAPI was used to quantify total number of cells after fixation. Plates were analyzed using a Molecular Devices ImageXpress High-Content Analysis System. Data was quantified using MetaXpress software.

GLIS3−/− PP2-β cells [2] = assay: Cell apoptosis rate (cleaved caspase-3+ INS+ cells in INS+ cells) and INS+ cell number, high content imaging; assay type: cell-based, human; settings: for cell apoptosis rate: INS-GFP+ GLIS3−/− PP2-β cells
Protocol: Immunofluorescence staining. Cells were fixed in 4% paraformaldehyde solution (Affymetrix) for 20 min, then blocked and permeabilized in PBS solution containing 5% horse serum and 0.3% Triton for 1 hr at room temperature. The cells were incubated with primary antibodies overnight at 4 C followed by 1 hr incubation with fluorescence-conjugated secondary antibodies (Alexafluor, ThermoFisher Scientific) at RT. For pSMAD2/3 staining, cells were permeabilized with ice-cold methanol at ˜20 C for 10 min after fixation and prior to blocking. The following primary antibodies were used: anti-OCT4 (1:200, Santa Cruz), anti-SOX17 (1:500, R&D), anti-PDX1 (1:500, R&D), anti-SOX9 (1:1000, Millipore), anti-NKX6.1 (1:500, DSHB), anti-NKX2.2 (1:500, DSHB), anti-PAX6 (1:1000, Covance), anti-ISL1 (1:200, DSHB), anti-UCN3 (1:500, Phoenix Pharmaceuticals), anti-NGN3 (1:500, R&D), anti-chromogranin A (1:1000, Immunostar), anti-glucagon (1:2000, Sigma) anti-somatostatin (1:1000, DAKO), anti-ghrelin (1:500, Santa Cruz), anti-insulin (1:500, DAKO) and anti-cleaved caspase-3 (1:1000, BD Biosciences), anti-pSMAD2/3 (1:200, Cell Signaling).
High throughput chemical screening. To perform the high throughput small molecule screening, GLIS3^−/− cells at D26_L were dissociated using Accutase and replated onto 804G-coated 384-well plates at 20,000 cells/80 μl medium/well. After 8 hr, cells were treated at 1 μM and 10 μM with compounds from an in-house library of 300 signaling pathway modulators, an epigenetics library (Cayman Chemical), Prestwick library of approved drugs (FDA, EMA and other agencies), LOPAC (Sigma Aldrich) and the MicroSource library totaling 5000 chemicals. DMSO treatment was used as a negative control. Untreated wells containing WT cells were included as positive control. After 4 days of culture, cells were first stained with 2.5 μg/mL PI and then fixed and stained using antibodies against Insulin (DAKO) and cleaved caspase-3 (BD biosciences). Plates were analyzed using a Molecular Devices ImageXpress High-Content Analysis System. Two-dimensional analysis was used. Compounds inducing lower % cleaved caspase-3 (Z-score<−1.5) and a similar or higher number of INS^+ cells compared to DMSO treated wells were selected as primary hits.

SMAD2/3 phosphorylation = assay: Western blot of SMAD2/3 phosphorylation; assay type: cell-based, human; settings: 10 μM; GLIS3−/− cells at D30_L; vs DMSO
Protocol: Western blot analysis. Whole-cell lysates were generated by scraping cultures on day 24 of differentiation in cold PBS, and re-suspending in complete lysis buffer (20 mM Tris pH 7.0, 150 mM NaCl, 50 mM NaF, 1% NP-40 substitute, and Thermo Scientific HALT protease inhibitor cocktail 1:100). Lysates were loaded onto 10% NuPage Bis-Tris gels (Invitrogen), resolved by electrophoresis, and transferred to PVDF membranes (Bio-Rad). Membranes were blocked with 5% bovine serum albumin in TBS+ 0.05% Tween and probed overnight with primary antibody. The antibodies were rabbit anti-phospho-SMAD2/3 (1:250, Cell Signaling), rabbit anti-SMAD2/3 XP (1:5000, Cell Signaling), and mouse anti-β-actin (1:50000, Sigma A1978). Membranes were washed and incubated for 1 hr with HRP-conjugated secondary antibody (Bio-Rad) in 5% milk-TBS-0.05% Tween and developed using SuperSignal West Pico (Thermo Scientific) or Immobilon (Millipore) ECL substrate.

[3] = tested on: GLIS3−/− PP2 cells transplanted under the kidney capsule; assay: In vivo transplantation and drug treatment, graft apoptosis by immunohistochemistry; set-up: species or system SCID-beige mice; settings: 15 mg/kg/day intraperitoneal for seven days, vs vehicle
Protocol: In vivo transplantation and drug treatment. WT and isogenic mutant hESCs at day 24 of differentiation (around 1 million cells) were harvested by cell scraper, mixed with 20 μl Matrigel (Corning) and transplanted under the kidney capsule of 6-8 weeks old male SCID-beige mice. For drug treatment, mice were injected intraperitoneally with 15 mg/kg/day galunisertib or vehicle for seven days. To prepare the injection cocktail, 200 mM galunisertib in DMSO was diluted ˜15 times with a 50:50 mixture of PEG300 (Sigma Aldrich) and saline (APP Pharmaceuticals). All animal work was conducted in agreement with NIH guidelines and approved by the local Institutional Animal Care and Use Committee (IACUC), the Institutional Biosafety Committee (IBC) as well as the Embryonic Stem Cell Research Committee (ESCRO).
Immunohistochemistry. Mouse kidneys with cells grafted under the capsules were washed with PBS, fixed with 4% paraformaldehyde at 4C overnight and transferred to 30% sucrose solution for dehydration. […] The slides were blocked and permeabilized in PBS solution containing 5% horse serum and 0.3% Triton for 1 hr at RT and then incubated with primary antibodies overnight at 4C followed by 1 hr incubation with fluorescence-conjugated secondary antibodies (Alexafluor, ThermoFisher Scientific) at RT. […] Fluorescent images were scored using MetaMorph® image analysis software (Molecular Devices).

WT INS-GFP+ PP2-β cells = assay: Annexin V apoptosis analysis in wild-type cells; assay type: cell-based, human; settings: 10 μM
Protocol: Annexin V cellular apoptosis analysis. hESC derived cells were dissociated by Accutase and washed with cold PBS, stained with the PE/Annexin V apoptosis detection Kit (BD Bioscience, 559763) or A647-conjugated annexin V (Thermo Fisher Scientific) according to manufacturer's instructions, the samples were the analyzed by flow cytometry (BD Bioscience, FASC ARIA2) within 30 min. To include a positive control for apoptosis, cells were incubated with 10 μM Camptothecin (Sigma Aldrich) or DMSO for 4 hours prior to Annexin V staining.

[4] = 10 μM, GLIS3−/− cells at D30_L, vs DMSO

| Structure (SMILES) | cell death rate (GLIS3−/− PP2-β cells [1]; 1 μM) | cell apoptosis rate (GLIS3−/− PP2-β cells [2]; 1 μM) | cell death rate (GLIS3−/− PP2-β cells [1]; 10 μM) | cell apoptosis rate (GLIS3−/− PP2-β cells [2]; 10 μM) | other results |
| --- | --- | --- | --- | --- | --- |
| NC(=O)c1ccc(-c2nc(-c3ccccn3)c(-c3ccc4c(c3)OCO4)[nH]2)cc1 [SB431642] | significantly decrease | significantly decrease |  |  |  |
| Cc1cccc(-c2nn(C(=S)Nc3ccccc3)cc2-c2ccnc3ccccc23)n1 [A83-01] |  |  | significantly decrease | significantly decrease |  |
| Cc1cccc(-c2nn3c(c2-c2ccnc4ccc(C(N)=O)cc24)CCC3)n1 [galunisertib] |  |  |  |  | cell death (GLIS3−/− PP2-β cells [1]; [4]): significantly reduces; increased SMAD2/3 phosphorylation (SMAD2/3 phosphorylation): inhibits; cell apoptosis rate in the transplanted cells (cleaved caspase-3+/STEM121+ cells in STEM121+ cells) ([3]; cells pre-treated with 10 μM for 16 hr): significantly decreases; cell apoptosis rate in INS+ and PDX1+ cells in the grafts [3]: significantly decreases; number of INS+ cells (GLIS3−/− PP2-β cells [2]; 10 μM, GLIS3−/− PP2-β cells, normalized to DMSO): increases; cell apoptosis (GLIS3−/− PP2-β cells [2]; [4]): significantly reduces; pIC50 (GLIS3−/− PP2-β cells [2]; Homo sapiens, dose-dependent, inhibitory curve FIG. 4c, read-out: IC50, rescue of loss of GLIS3-induced pancreatic β-cell apoptosis): 5.94; cell apoptosis of WT INS+ cells (WT INS-GFP+ PP2-β cells): does not affect |
| c1ccc(-c2[nH]ncc2-c2ccnc3ccccc23)nc1 [LY-364947] |  |  | significantly decrease | significantly decrease |  |
| Cc1cccc(-c2[nH]c(C(C)(C)C)nc2-c2ccc3nccnc3c2)n1 [SB525334] | significantly decrease | significantly decrease |  |  |  |
